{"source": "paper PMC5739799", "about": "(Oncotarget, 2017)", "key": {"HCC-PDX model 189": {"tested_on": "HCC-PDX model 189", "experiment": "Patient-derived HCC xenograft model 189, tumor growth", "assay_type": "in vivo, BALB/c nude mice", "procedure": "(§1) The PDX studies were carried out by WuXi AppTec (Shanghai, China). HCC-PDX models were originally established from surgically resected tumor tissue that was implanted in 6–8-week-old female BALB/c nude mice. Animal studies were performed according to the guidelines approved by the Institutional Animal Care and Use Committee of Wuxi AppTec, which follow the guidance of the Association for the Assessment and Accreditation of Laboratory Animal Care. Animals were routinely monitored for their health status and their body weights. Treatment was suspended and/or doses reduced at body weight losses >10%. Animals were euthanized when the tumor size exceeded 2000 mm^3. Pieces from tumor xenografts (∼30 mm^3) from passages 4–8 (ST1) were implanted subcutaneously at the right flank, and tumors were grown to an average size of about 150–200 mm^3. […] Tumor size was measured twice weekly using caliper measurements. Tumor volume (mm^3) was calculated using the formula 0.5 a × b^2, where a and b are the long and short diameters of the tumor, respectively. TGI was assessed either by calculating the ratio of the mean tumor volumes of treated and control groups or by determination of the RTV, which relates tumor volumes at any given day of treatment to the volume at the first treatment day.\n(§2) In the syngenic orthotopic H129 model, differences in survival times between groups were analyzed for significance using log-rank tests. Analysis of tumor volumes of the HCC-PDX models was performed with log2-transformed values on defined days of measurement based on the assumption of their log-normal distribution. […] All respective statistical test results were derived from a common linear model that allows for individual variances in the different groups. The adjustment for multiple testing was carried out using Šidák correction at a significance level of 0.05. Back transformation of the mean difference of log2-transformed tumor volumes led to the ratios of the compared groups, whereby ratios of 1 reflect no difference in tumor volumes and ratios below or above 1 reflect smaller or larger tumor volumes, respectively, of the respective second group. The analyses of RTV were carried out in a similar fashion without the log2 transformation of values. Bead-based western data were analyzed (described in [15]) using the MEV 4.8.1 software package. A p-value <0.05 was regarded as significant. All statistical analyses were performed with SAS® 9.4 [34]."}, "HCC-PDX model 61": {"tested_on": "HCC-PDX model 61", "experiment": "Patient-derived HCC xenograft model 61, tumor growth", "assay_type": "in vivo, BALB/c nude mice", "procedure": "as §1, §2"}, "HCC-PDX model 101": {"tested_on": "HCC-PDX model 101", "experiment": "Patient-derived HCC xenograft model 101, tumor growth", "assay_type": "in vivo, BALB/c nude mice", "procedure": "as §1, §2"}, "HCC-PDX model 141": {"tested_on": "HCC-PDX model 141", "experiment": "Patient-derived HCC xenograft model 141, tumor growth", "assay_type": "in vivo, BALB/c nude mice", "procedure": "as §1, §2"}, "HCC-PDX model 159": {"tested_on": "HCC-PDX model 159", "experiment": "Patient-derived HCC xenograft model 159, tumor growth", "assay_type": "in vivo, BALB/c nude mice", "procedure": "as §1, §2"}, "[1]": {"experiment": "Steady-state plasma pharmacokinetics after oral dosing for 5 days", "assay_type": "in vivo, BALB/c nu/nu mice", "procedure": "Pharmacokinetic studies were performed in 6–8-week-old female BALB/c nu/nu mice (Charles River, Sulzfeld, Germany). […] Parent compounds and metabolites M-2 and M-5 were analyzed in plasma samples using validated bioanalytical liquid chromatography-tandem mass spectrometry (LC-MS/MS) methods according to an experimental protocol described earlier. PK parameters, namely the AUC(0–24)ss and Cmax, were calculated from plasma concentrations using a non-compartmental analysis."}, "H129 hepatoma": {"tested_on": "H129 hepatoma", "experiment": "Syngenic orthotopic H129 hepatoma mouse model, survival", "assay_type": "in vivo, C3H/HeN mice", "conditions": "sorafenib 30 mg/kg/day oral, separate study; vehicle 28 days", "description": "C3H/HeN mice aged 10–12 weeks with an average weight of 25 g were used for this model and were obtained from Charles River (Sulzfeld, Germany). Experiments were initiated after an acclimatizing period of at least 8 days. Syngenic murine H129 hepatoma cells (obtained from Dr. V. Schmitz, University of Bonn, Germany) were cultivated in RPMI medium, containing 10% fetal calf serum (FCS) and 5% glutamine. Cells were harvested in a subconfluent state (70–80%), prepared for injection of 5×10^4 cells/20 μL in growth factor-free Matrigel, and transplanted in the left upper liver lobe. Animals with surgical failures were marked and excluded from the experiment. Treatment was initiated 4–5 days after transplantation. One set of mice received regorafenib 10 mg/kg once daily, vehicle solution once daily, or no treatment (n=8 per treatment group). […] Treatments were given orally via gavage. The vehicle solution contained 10% Transcutol, 10% Cremophor, and 80% 0.9% NaCl. Animals were weighed twice a week and monitored daily for behavior and wound healing. […] Due to ascites formation in the peritoneum (a symptom of the disease), body weight was not used as part of the assessment. Animals were dissected to assess the cause of death unless they had died in their cage overnight.\n(§3) In the syngenic orthotopic H129 model, differences in survival times between groups were analyzed for significance using log-rank tests. Analysis of tumor volumes of the HCC-PDX models was performed with log2-transformed values on defined days of measurement based on the assumption of their log-normal distribution. […] All respective statistical test results were derived from a common linear model that allows for individual variances in the different groups. The adjustment for multiple testing was carried out using Šidák correction at a significance level of 0.05. […] Bead-based western data were analyzed (described in [15]) using the MEV 4.8.1 software package. […]"}, "HCC-PDX model 5": {"tested_on": "HCC-PDX model 5", "experiment": "Patient-derived HCC xenograft model 5, tumor growth", "assay_type": "in vivo, BALB/c nude mice", "procedure": "as §1, §2"}, "HCC-PDX model 10": {"tested_on": "HCC-PDX model 10", "experiment": "Patient-derived HCC xenograft model 10, tumor growth", "assay_type": "in vivo, BALB/c nude mice", "procedure": "as §1, §2"}, "[2]": {"tested_on": "10 patient-derived HCC xenograft (HCC-PDX) models", "experiment": "Panel of 10 HCC-PDX models, overall response and tolerability", "assay_type": "in vivo, BALB/c nude mice", "procedure": "as §1, §3"}, "HCC-PDX model 217": {"tested_on": "HCC-PDX model 217", "experiment": "Patient-derived HCC xenograft model 217, tumor growth", "assay_type": "in vivo, BALB/c nude mice", "procedure": "as §1, §2"}, "[3]": {"conditions": "day 28, R 10 / S 30 mg/kg/day oral starting dose"}, "[4]": {"conditions": "plasma analyte after oral sorafenib tosylate 30 mg/kg/day (21.9 mg/kg/day sorafenib) for 5 days"}}, "note": "“And” between values parts separate entries of the source, which are not always exact repeats. Identical values can stand only once."}
{"compound": "CNC(=O)c1cc(Oc2ccc(NC(=O)Nc3ccc(Cl)c(C(F)(F)F)c3)cc2)ccn1", "note": "[Sorafenib]", "values": [{"measurement": "RTV Differences of least square-means, compound vs vehicle", "setting": "HCC-PDX model 189; day 21", "value": "-29,028"}, {"measurement": "Mean TV", "setting": "HCC-PDX model 189; day 21, R 10 / S 30 mg/kg/day oral starting dose", "value": 351.96, "unit": "mm^3"}, {"measurement": "log TV Differences of least square-means, compound vs vehicle", "setting": "HCC-PDX model 189; day 21, log2-transformed TV", "value": "-10,604"}, {"measurement": "RTV", "setting": "HCC-PDX model 189; end of study, day 21", "value": 2.66}, {"measurement": "Mean TV", "setting": "HCC-PDX model 61; day 25, R 10 / S 30 mg/kg/day oral", "value": 424.86, "unit": "mm^3"}, {"measurement": "RTV", "setting": "HCC-PDX model 61; end of study (RTV analysis day R 42, S 36)", "value": 5.28}, {"measurement": "Mean TV", "setting": "HCC-PDX model 101; [3]", "value": 416.97, "unit": "mm^3"}, {"measurement": "RTV", "setting": "HCC-PDX model 101; end of study, day 42", "value": 5.37}, {"measurement": "Mean TV", "setting": "HCC-PDX model 141; [3]", "value": 139.51, "unit": "mm^3"}, {"measurement": "RTV", "setting": "HCC-PDX model 141; end of study, day 42", "value": 2.16}, {"measurement": "Mean TV", "setting": "HCC-PDX model 159; [3]", "value": 1144.22, "unit": "mm^3"}, {"measurement": "log TV Differences of least square-means, compound vs vehicle", "setting": "HCC-PDX model 159; day 28, log2-transformed TV", "value": -0.3943}, {"measurement": "RTV", "setting": "HCC-PDX model 159; end of study, day 35", "value": 9.73}, {"measurement": "AUC(0–24)ss (percent of total)", "setting": "[1]; after oral sorafenib tosylate 30 mg/kg/day for 5 days, total = molar sum of sorafenib and M-2", "value": "99% of total"}, {"measurement": "AUC(0–24)ss", "setting": "[1]; [4]", "value": 177, "unit": "µM·h"}, {"measurement": "Cmax", "setting": "[1]; [4]", "value": 23.9, "unit": "µM"}, {"measurement": "Estimated Cmax", "setting": "[1]; sorafenib 30 mg/kg/day related to free base (HCC-PDX study dose), assuming dose linearity", "value": 33.6, "unit": "µM"}, {"measurement": "Cumulated maximum concentration (Cmax)", "setting": "[1]; sorafenib tosylate 30 mg/kg once daily for 5 days, parent plus metabolites", "value": 24.5, "unit": "µM"}, {"measurement": "Median survival, days (95% CI)", "setting": "H129 hepatoma", "value": "33 days and 33 (27, 35) days"}, {"measurement": "Mean TV", "setting": "HCC-PDX model 5; [3]", "value": 134.44, "unit": "mm^3"}, {"measurement": "log TV Differences of least square-means, compound vs vehicle", "setting": "HCC-PDX model 5; day 28, log2-transformed TV", "value": "-24,884"}, {"measurement": "RTV Differences of least square-means, compound vs vehicle", "setting": "HCC-PDX model 5; day 46", "value": "-54,048"}, {"measurement": "RTV", "setting": "HCC-PDX model 5; end of study, day 46", "value": 1.74}, {"measurement": "Mean TV", "setting": "HCC-PDX model 10; day 12, R 10 / S 30 mg/kg/day oral", "value": 607.16, "unit": "mm^3"}, {"measurement": "log TV Differences of least square-means, compound vs vehicle", "setting": "HCC-PDX model 10; day 12, log2-transformed TV", "value": "-17,966"}, {"measurement": "RTV", "setting": "HCC-PDX model 10; end of study (RTV analysis day R 40, S 30)", "value": 13.39}, {"measurement": "Models with significant tumor growth inhibition", "setting": "[2]; 10 HCC-PDX models, regorafenib 10, sorafenib 30 mg/kg/day oral", "value": "7/10"}, {"measurement": "Dose reductions and/or treatment interruptions", "setting": "[2]; HCC-PDX models, sorafenib compared with regorafenib", "value": "more often"}, {"measurement": "Mean TV", "setting": "HCC-PDX model 217; day 13, R 10 / S 30 mg/kg/day oral", "value": 1087.45, "unit": "mm^3"}, {"measurement": "log TV Differences of least square-means, compound vs vehicle", "setting": "HCC-PDX model 217; day 13, log2-transformed TV", "value": "-10,119"}, {"measurement": "RTV", "setting": "HCC-PDX model 217; end of study (RTV analysis day R 24, S 20)", "value": 10.84}]}
